From patent publication US11098040B2, “Compounds and methods of use” (Ferro Therapeutics, Inc., priority 2018, dated 2021)

Assays:
[1] = mouse, ip, 15 mg/kg
Description: (§3) Test compounds were dissolved either in 20% (w/w) sulfobutylether-β-cyclodextrin (SBECD) pH 3-7 aqueous solution, or 5% DMSO/(30-50%) PEG400/(65-45%) water. Test compound dosing solutions were administered intraperitoneally to Balb/c nude male mice. Blood samples were collected at various time points with EDTA-K2 as anti-coagulant on ice, and centrifuged to obtain plasma samples. The plasma samples were stored at −20° C. until analysis.
(§4) Into 10 μL of test compound plasma samples were added 2 μL DMSO then 200 μL of 5 ng/mL internal standard (VTSD) (Terfenadine) in MeOH/acetonitrile. The mixture was vortexed for 1 minute and centrifuged at 4000 rpm for 15 minutes. Calibration standards were prepared by spiking known amount of test compounds into blank plasma samples. The supernatant solution was diluted 5 times with Acetonitrile/H2O (with 0.1% formic acid, 1:1, v/v), and this is the solution for LC-MS/MS analysis. The limit of quantification (LOQ) was 1 ng/mL.
(§5) Typical HPLC mobile phases were mobile phase of 5 mM NH4OAc (with 0.05% formic acid); and mobile phase B of acetonitrile (with 0.1% formic acid). The HPLC column was Kinetex C18 (30 mm×3.00 mm). Mass spectrometer was tuned for each compound in the Multiple Reaction Monitoring (MRM) scanning mode and in the electrospray ionization mode. The lower limit of quantification was 1-10 ng.
(§6) In this study, K601 (RSL3) was formulated in 5% DMSO/30% PEG 400/65% water at 1.5 mg/mL. The volume of injection via intraperitoneal route was 10 mL/kg for a dose of 15 mg/kg. […] The limit of quantification (LOQ) was 1 ng/mL.
(§7) In this study, the compound was formulated in 20% (w/w) sulfobutylether-β-cyclodextrin (SBECD), pH 5 aqueous solution at 1.5 mg/mL. The volume of injection via intraperitoneal route was 10 mL/kg for a dose of 15 mg/kg. The concentration of test compounds in plasma were analyzed by LC-MS with the method described above. The limit of quantification was 1 ng/mL.
(§8) It was formulated in 5% DMSO/50% PEG400/45% Water pH adjusted to 4 with HCl as an aqueous solution at 1.0 mg/mL. The volume of injection via intraperitoneal route was 15 mL/kg for a dose of 15 mg/kg. The concentration of test compounds in plasma were analyzed by LC-MS with the method described above. The limit of quantification was 1 ng/mL. […] The limit of quantification was 1 ng/mL.
(§9) Compounds 24 and 28 were formulated in 20% (w/w) sulfobutylether-β-cyclodextrin (SBECD) with pH 3 and pH 4, respectively, as an aqueous solution at 1.0 mg/mL. Compound 67 was in 5% DMSO/50% PEG 400/45% water pH 4 (adjusted with 12 N HCl) aqueous solution at 1.0 mg/mL. The injection volume via intraperitoneal route was 10 mL/kg for a dose of 15 mg/kg. The concentration of test compounds in plasma were analyzed by LC-MS with the method described above. The limit of quantification was 1 ng/mL.

[2] = Pharmacokinetic (PK) studies in Balb/C nude mice via intraperitoneal injection; details: male, Balb/c nude, mouse, plasma, ip, 15 mg/kg, Calculated Concentration, IP 15 mg/kg, Balb/C nude mice
Description: as §3, §4, §5, §6, §7, §8, §9

MiaPaCa-2 = assay: Cell viability assay (CellTiter Glo), pancreatic carcinoma MiaPaCa-2; format: cell-based; details: Homo sapiens, MIA PaCa-2; pancreatic carcinoma, 96 hours, CellTiter Glo; read-out: IC50 MiaPaCa-2
Summary of the method: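 MiaPaCa-2 and AsPC-1 cells were seeded overnight at 37 °C and exposed for 96 h to 9-point, 3-fold dilutions from up to 30 μM (final DMSO ≤0.25%). CellTiter Glo luminescence was read, and inhibition was calculated relative to DMSO-only cells. IC50, relative IC50 or % top inhibition was derived.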

REC-1 = assay: Cell viability assay (CellTiter Glo), lymphoma cell line REC-1; format: cell-based; details: Homo sapiens, Rec1, 96 hours
Description: (§1) Cell viability assay was performed to assess the potency of the compounds in human cancer cell lines KP4 (pancreatic ductal adenocarcinoma), MiaPaCa-2 (pancreatic carcinoma), AsPC-1 (pancreatic adenocarcinoma, ascites), 143B (osteosarcoma), and SJSA-1 (osteosarcoma). Selected compounds were also assayed in a human breast epithelial cell line MCF-10A, a nontumorigenic cell line as a control to assess differential activity. Cells at a density of 500-5,000 cells/well were seeded in 96-well plates and incubated at 37° C. overnight. A series of 9 different concentrations of compound stocks (500×) were created by 3-fold serial dilution in DMSO. These compounds were further diluted in culture media and then added to cells so that the final DMSO concentration was equal to 0.25% or less. After 96 hours of incubation, 50 μL of CellTiter Glo reagent (Promega) was added to each well and luminescence was measured after 10 minutes using EnVision (PerkinElmer). Compounds titrated from top concentration of up to 30 μM. The select compounds were tested initially from 30 μM as the top concentration in duplicates (range of 4.6 nM-30 μM). […] Luminescence from cells treated with DMSO alone was set as Max and % of inhibition was calculated as follows: Inhibition %=(Max-Sample value)/Max*100. Data was analyzed using XL-fit software (ID Business Solutions Ltd.). IC50, relative IC50, or % of top inhibition was calculated.
(§2) A group of selected analogs were further profiled in cell viability assays described above in multiple additional cancer cell lines, including lung cancer, melanoma, hepatocarcinoma, pancreatic cancer, leukemia, lymphoma, ovarian cancer, breast cancer, colon cancer, and sarcoma cell lines. Initial cell seeding numbers were adjusted for each cell line. Typically, 500-5000 cells/well for adherent cells and 5000-10000/well for suspension cells were seeded in 96-well plates.

MV-4-1 = assay: Cell viability assay (CellTiter Glo), leukemia cell line MV-4-1; format: cell-based; details: 96 hours
Description: as §1, §2
The results of the assay in the leukemia cell lines are given in Table 16a for MV-4-1 and Table 16b for HL-60 and Kasumi-1.

MCF-10A = assay: Cell viability assay (CellTiter Glo), non-tumorigenic breast epithelial cell line MCF-10A; format: cell-based; details: Homo sapiens, 96 hours
Summary of the method: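 MCF-10A cells (500-5,000/well) treated 96 h at 37° C with 9-point 3-fold dilutions from up to 30 μM, ≤0.25% DMSO, in duplicate. Viability by CellTiter Glo luminescence; % inhibition versus DMSO-only wells gave IC50, relative IC50 or % top inhibition. Paclitaxel positive control.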

Huh7 = assay: Cell viability assay (CellTiter Glo), hepatocellular carcinoma Huh7; format: cell-based; details: Homo sapiens, Huh-7, 96 hours
Description: as §1, §2

HCC1954 = assay: Cell viability assay (CellTiter Glo), breast cancer cell line HCC1954; format: cell-based; details: Homo sapiens, 96 hours
Description: as §1, §2

H1299 = assay: Cell viability assay (CellTiter Glo), lung cancer cell line H1299; format: cell-based; details: Homo sapiens, NCI-H1299, 96 hours
Description: as §1, §2

SK-OV-3 = assay: Cell viability assay (CellTiter Glo), ovarian cancer cell line SK-OV-3; format: cell-based; details: Homo sapiens, 96 hours
Description: as §1, §2

Raji = assay: Cell viability assay (CellTiter Glo), lymphoma cell line Raji; format: cell-based; details: Homo sapiens, 96 hours
Description: as §1, §2

PANC1 = assay: Cell viability assay (CellTiter Glo), pancreatic cell line PANC1; format: cell-based; details: Homo sapiens, PANC-1, 96 hours
Description: as §1, §2
The results of the assay in the pancreatic cell lines are given in Table 15a for PANC1, Table 15b for MiaPaCa-2, and Table 15c for AsPC-1.

MDA-MB-435S = assay: Cell viability assay (CellTiter Glo), melanoma cell line MDA-MB-435S; format: cell-based; details: Homo sapiens, 96 hours
Description: as §1, §2

HT-1080 luc2 = assay: Cell viability assay (CellTiter Glo), fibrosarcoma HT-1080 luc2; format: cell-based; details: Homo sapiens, fibrosarcoma expressing a luciferase gene, 96 hours, CellTiter Glo, read-out: IC50 HT-1080 luc2
Description: as §1, §2
The results of the assay in sarcoma cell lines are given in Table 21a for HT-1080 luc2 (fibrosarcoma expressing a luciferase gene), Table 21b for 143B (osteosarcoma), and Table 21c for SJSA-1 (osteosarcoma).

HT29 = assay: Cell viability assay (CellTiter Glo), colon cancer cell line HT29; format: cell-based; details: Homo sapiens, HT-29, 96 hours
Description: as §1, §2

H2228 = assay: Cell viability assay (CellTiter Glo), lung cancer cell line H2228; format: cell-based; details: Homo sapiens, NCI-H2228; lung cancer cell line, 96 hours, CellTiter Glo; read-out: IC50 H2228
Description: as §1, §2

SMILES	IC50 (REC-1)	IC50 (MV-4-1)	IC50 (Huh7)	IC50 (HCC1954)	IC50 (H1299)	IC50 (SK-OV-3)	IC50 (Raji)	IC50 (PANC1)	IC50 (MDA-MB-435S)	IC50 (HT-1080 luc2)	IC50 (HT29)	IC50 (H2228)	IC50 (MCF-10A)	other results
COC(=O)c1ccc([C@H]2c3[nH]c4ccccc4c3C[C@H](C(=O)O)N2C(=O)CCl)cc1 [Example 3]														detection in vivo of hydrolyzed products of K601 (RSL3) [1]: detected
COC(=O)[C@H]1Cc2c([nH]c3ccccc23)[C@H](c2ccc(C(=O)O)cc2)N1C(=O)CCl [Example 4]														detection in vivo of hydrolyzed products of K601 (RSL3) [1]: detected
O=C(O)c1ccc([C@H]2c3[nH]c4ccccc4c3C[C@H](C(=O)O)N2C(=O)CCl)cc1 [Example 5]														detection in vivo of hydrolyzed products of K601 (RSL3) [1]: detected
CN(C)C(=O)[C@H]1Cc2c([nH]c3ccccc23)[C@H](c2ccc([Si](C)(C)C)cc2)N1C(=O)CCl [Example 67]														concentration at 0.5 h ([2]; individual mice): 90.6 ng/mL; concentration at 1 h ([2]; individual mice): 38.7 ng/mL; concentration at 4 h ([2]; individual mice): 16.6 ng/mL; concentration at 0.5 h ([2]; Mean, mean of 3 mice): 112 ng/mL; concentration at 1 h ([2]; Mean, mean of 3 mice): 51.7 ng/mL; concentration at 2 h ([2]; Mean, 2 h, mean of 3 mice): 20.2 ng/mL; concentration at 4 h ([2]; Mean, mean of 3 mice): 14.4 ng/mL; IC50 (MiaPaCa-2): 805 nM
COC(=O)c1ccc([C@@H]2c3[nH]c4ccc(Cl)cc4c3C[C@H](C(=O)OC)N2C(=O)CCl)cc1 [Example 94]	29 nM	83 nM	26 nM	68 nM	5 nM	18 nM	9 nM	47 nM	9 nM	8 nM	110 nM	19 nM	460 nM	
CC[C@H]1Cc2c([nH]c3ccccc23)[C@H](c2ccc(C(=O)OC)cc2)N1C(=O)CCl [Example 98]	61 nM	65 nM	27 nM	63 nM	6 nM	30 nM	20 nM	43 nM	7 nM	9 nM	94 nM	17 nM	920 nM	
C[C@H]1Cc2c([nH]c3ccccc23)[C@H](c2ccc(S(=O)(=O)N[C@]34CC5C[C@H](C[C@H](C5)C3)C4)cc2)N1C(=O)CCl [Example 101]	191 nM	174 nM	72 nM	613 nM	38 nM	114 nM	75 nM	169 nM	36 nM	39 nM	403 nM	163 nM	1070 nM	
C[C@H]1Cc2c([nH]c3ccccc23)[C@H](c2ccc([Si](C)(C)C)cc2)N1C(=O)CCl [Example 106]	156 nM	170 nM	28 nM	120 nM	7 nM	87 nM	31 nM	55 nM	17 nM	11 nM	189 nM	55 nM		

The next lines start with results.

IC50 (REC-1)	IC50 (MV-4-1)	IC50 (Huh7)	IC50 (HCC1954)	IC50 (H1299)	IC50 (SK-OV-3)	IC50 (Raji)	IC50 (PANC1)	IC50 (MDA-MB-435S)	IC50 (HT-1080 luc2)	IC50 (HT29)	IC50 (H2228)	SMILES	IC50 (MCF-10A)	other results
31 nM	23 nM	11 nM	38 nM	3 nM	13 nM	10 nM	30 nM	4 nM	4 nM	48 nM	9 nM	C[C@H]1Cc2c([nH]c3ccccc23)[C@H](c2ccc(C(=O)N[C@]34CC5C[C@H](C[C@H](C5)C3)C4)cc2)N1C(=O)CCl [Example 102]	220 nM	
186 nM	230 nM	84 nM	137 nM	21 nM	113 nM	74 nM	161 nM	38 nM	28 nM	448 nM	34 nM	C[C@H]1Cc2c([nH]c3ccccc23)[C@H](c2ccc(N3CCOCC3)cc2)N1C(=O)CCl [Example 103]	1370 nM	
106 nM	168 nM	43 nM	108 nM	32 nM	63 nM	38 nM	69 nM	17 nM	19 nM	174 nM	57 nM	C[C@H]1Cc2c([nH]c3ccccc23)[C@H](c2ccc(C3CCCC3)cc2)N1C(=O)CCl [Example 109]	1140 nM	
96 nM	164 nM	35 nM	101 nM	30 nM	53 nM	33 nM	72 nM	14 nM	17 nM	112 nM	51 nM	C[C@H]1Cc2c([nH]c3ccccc23)[C@H](c2ccc(C3CCCCC3)cc2)N1C(=O)CCl [Example 110]		
140 nM	270 nM	81 nM	101 nM	38 nM	102 nM	46 nM	81 nM	30 nM	24 nM	198 nM	66 nM	C[C@H]1Cc2c([nH]c3ccccc23)[C@H](c2ccc(C3CCOCC3)cc2)N1C(=O)CCl [Example 112]		
222 nM	532 nM	157 nM	200 nM	79 nM	146 nM	81 nM	214 nM	48 nM	69 nM	494 nM	145 nM	COC(=O)c1ccc([C@H]2c3[nH]c4ccc(OC)cc4c3C[C@H](C)N2C(=O)CCl)cc1 [Example 113]		
